{"source": "patent US11351347B2", "about": "“Vacuum-assisted drug delivery device and method” (VacuMed, LLC., priority 2014, dated 2022)", "experiment": "Vacuum-assisted trans-epithelial delivery of riboflavin into rabbit corneas, compared with standard delivery after epithelium removal", "format": "in vivo", "conditions": "trans-epithelial vacuum delivery through intact epithelium, varying application time periods; compared with standard method in which the epithelium is surgically removed", "method": "The device and method herein were tested to verify the effectiveness of the vacuum delivery system and to quantify concentrations of the standard formulation of riboflavin that is used in the process of cross-linking collagen corneal tissue in rabbit corneas. The tests employed the present invention to facilitate trans-epithelial delivery of riboflavin at varying application time periods, and compare the concentrations achieved with the concentration of riboflavin achieved through the standard method of riboflavin delivery (i.e., in which the epithelium is surgically removed). […] In other embodiments, high levels of vacuum, higher riboflavin concentrations, and the use of penetration enhancers may be used to increase the amount of riboflavin diffusion into the cornea per unit time. These animal studies clearly provide a proof of principle for the efficacious delivery of riboflavin into the cornea, through an intact epithelium, using the device and method of this invention. These studies also provide critical concentration/treatment time data for utilizing this invention."}
{"smiles": "Cc1cc2nc3c(=O)[nH]c(=O)nc-3n(C[C@H](O)[C@H](O)[C@H](O)CO)c2cc1C", "note": "[riboflavin]", "values": [{"measurement": "riboflavin delivery to the cornea (concentration achieved)", "result": "equivalent to the effect of removing the corneal epithelium"}]}
